Experimental data: patent EP0498290B1, “Pyridobenzodiazepines, dipyrido [3,2-b:2',3'-e] [1,4]diazepines and their use in the prevention or treatment of HIV infection” (BOEHRINGER INGELHEIM PHARMACEUTICALS INC., priority 1991, dated 1992)
In brackets after ≈: the same amount, converted by molar mass. Read-outs that look alike come from different tables or passages of the source.

Legend:
HIV-1 RT = target: T1, HIV-1 RT (Human immunodeficiency virus type 1 group M subtype B, UniProt P03367); experiment: Reverse Transcriptase (RT) Assay: RNA-dependent DNA polymerase activity, poly r(C)/oligo d(G) template, 3H-dGTP; assay type: biochemical
T1 construct: Reverse transcriptase enzyme from the LAV strain of Human Immunodeficiency Virus (HIV-1) (1) was isolated from the bacterial strain JM109; made in house; host or cells: E. coli JM109, clone pBRTprt1+ in vector pIBI21 (lac promoter, IPTG induction)
Source text: Utilizing the Reverse Transcriptase (RT) Assay described below, compounds can be tested for their ability to inhibit the RNA-dependent DNA polymerase activity of HIV-1 RT. Certain specific compounds described in the Examples which appear below, were so tested.
Among the enzymes for which Human Immunodeficiency Virus (HIV-1) encodes is a reverse transcriptase (1), so-named because it transcribes a DNA copy from an RNA template. This activity can be quantitatively measured in a cell-free enzyme assay, which has been previously described (2), and is based upon the observation that reverse transcriptase is able to use a synthetic template [poly r(C) primed with oligo d(G)] to transcribe a radio-labelled, acid-precipitable DNA strand utilizing ^3H-dGTP as a substrate.
Reverse transcriptase enzyme from the LAV strain of Human Immunodeficiency Virus (HIV-1) (1) was isolated from the bacterial strain JM109 (3) expressing the DNA clone pBRTprt1+ (2) which is under the control of the lac promotor in the expression vector pIBI21 (4). An overnight culture grown in 2XYT medium (37°C, 225 rpm) (5) supplemented with 100 µg/ml ampicillin for positive selection is inoculated at a 1:40 dilution into M9 medium supplemented with 10µg/ml thiamine, 0.5% casamino acids, and 50 µg/ml ampicillin (5). The culture is incubated (37°C, 225 rpm) until it reaches an OD540 of 0.3-0.4. At that time the repressor inhibitor IPTG (isopropyl β-D-thiogalactopyranoside) is added to 0.5mM, and the mixture is incubated for 2 additional hours. Bacteria are pelleted, resuspended in a 50mM Tris, 0.6mM EDTA, 0.375M NaCl buffer and digested by the addition of lysozyme (1mg/ml) for 30 minutes on ice. The cells are lysed by the addition of 0.2% NP-40 and brought to 1M NaCl.
After removal of the insoluble debris by centrifugation, the protein is precipitated by the addition of 3 volumes of saturated aqueous ammonium sulfate. The enzyme is pelleted, resuspended in RT buffer (50mM Tris pH 7.5, 1mM EDTA, 5mM DTT, 0.1% NP-40, 0.1M NaCl, and 50% glycerol), and stored at -70°C for further use.
b) Composition of 2X concentrated stock reaction mixture used in testing of compounds 1 to 15
Composition of 2X concentrated stock reaction mixture used in testing compounds 16 and 17
The 2X concentrated stock reaction mixture is aliquoted and stored at - 20°C. The mixture is stable and thawed for use in each assay. This enzyme assay has been adapted to a 96 well microtiter plate system, and has been previously described (6). Tris buffer (50 mM, pH 7.4), vehicle (solvent diluted to match the compound dilution), or compounds in vehicle are dispensed into 96-well microtiter plates (10µl/well; 3 wells/compound). The HIV-1 RT enzyme is thawed, diluted in 50mM Tris pH 7.8 (50mM Tris pH 7.4 in the case of compounds 16 and 17) so that fifteen µl of diluted enzyme contain 0.001 Unit (one unit is that amount of enzyme to transform 1 micromole of substrate per minute at 25°C), and fifteen µl are dispensed per well. Twenty µl of 0.12-0.5M EDTA are added to the first three wells of the microtiter plate. EDTA chelates the Mg^++ present and prevents reverse transcription. This group serves as background polymerization which is subtracted from all other groups. Twenty-five ul of the 2X reaction mixture are added to all wells and the assay is allowed to incubate at room temperature for 60 minutes. The assay is terminated by precipitating the DNA in each well with 50µl of 10% trichloracetic acid (TCA) (10% w/v) in sodium pyrophosphate (1% w/v). The microtiter plate is incubated for 15 minutes at 4°C and the precipitate is fixed onto #30 glass fiber paper (Schleicher & Schuell) using a Skatron semi-automatic harvester. The filters are then washed with additional TCA (5%) containing sodium pyrophosphate (1%), rinsed with aqueous ethanol (70%), dried, and transferred to scintillation vials (6). […]

in vitro = assay type: cell-based; details: human, c8166 cells
Experimental: In order to roughly assess the cytotoxicity of the compounds provided by the invention, several such compounds were tested in the MTT Cellular Cytotoxicity Assay described below. Compounds having a relatively high EC50 are preferred.
The MTT [3-(4,5-dimethylthiazol-2-yl)-2,5 diphenyl tetrazolium bromide) assay is based on cleavage of tetrazolium bromide by metabolically active cells, resulting in a highly quantitative blue color. This assay has been previously described (1) but has been optimized for the purposes of the testing reported herein.
The c8166 cell line (2), an established human lymphoma suspension cell line grown in RPMI 1640 supplemented with 10% fetal bovine serum, is used as the target cell line in the assay. Cells (100µl) are plated in microtest plate wells at a concentration of 10^5 cells per ml in the presence of varying concentrations of inhibitor. The cells are incubated at 37°C in a humidified CO2 incubator. Five days later, 20µl of MTT (5mg/ml in RPMI 1640, sonicated, 0.2 micron filtered, and stored at 4°C) is added to each well. After 4 hours additional incubation at 37°C, 60µl of Triton-X is added to each well and thoroughly mixed to aid the solubilization of the crystals. Absolute ethanol (5µl) is added to each well and the resulting mixture is incubated for 30 minutes at 60°C and immediately read on a plate reader (Dynatech) at a wavelength of 570nm. […]

[1] = test system: HTLV-IIIB strain of HIV-1; experiment: Human T-Cell Culture Assay (syncytia formation in c8166 cells); assay type: cell-based; details: Human immunodeficiency virus 1, IIIB, 96 h, syncytia read four days after virus challenge
Experimental: In order to confirm that compounds which are active in the RT Assay also have the ability to inhibit HIV replication in a living system, compounds according to the invention were also tested in the human T-Cell Culture Assay described below.
Assay Theory: Formation of syncytia is a feature of in vitro cultures of CD4+ T-cells infected with HIV-1. In this assay, T-cells are treated with a putative replication inhibiting compound and then infected with HIV-1. After incubation, the culture is checked for the formation of syncytia. The absence or reduction in the number of syncytia is used as a measure of the test compound's ability to inhibit HIV replication.
Assay Method: The target cells, designated c8166, are a subclone of human lymphoma cells of T-cell origin and are established at an initial density of 5x10^4 per 100 ul in RPMI 1640 (+ 10% fetal bovine serum) culture medium in 96 well flat bottom plates. A selected amount of test compound, dissolved in DMSO, is included. After 24 hours, 50-100 TCID50's (the dose that results in induced effect in 50% of test cultures) of the HTLV-IIIB strain of HIV-1 (2) are inoculated into each culture. Control cultures receive compound or virus only. Four days after virus challenge, cultures are visually examined for the frequency and distribution of virus-induced giant cell syncytia. The percent inhibition by the test compound is determined by comparison with control values. Confirmation of the presence or absence of virus replication is accomplished by harvesting the cell free culture fluids from all experimental groups to determine the presence or absence of infectious progeny through the induction of syncytia formation in secondary human T-cell cultures after 3 days.

[2] = 10 µg/ml, reaction mixture for compounds 1 to 15 (Tris pH 7.8, KCl, human serum albumin, 6µM 3H-dGTP in 2X mix), read-out: RT Assay % inhibition @ 10 µg/ml
[3] = pH 7.4, read-out: RT Assay % inhibition @ 10 µg/ml

Compound | inhibition at 3 µg/mL [1] [%] | inhibition at 10 µg/mL (HIV-1 RT; [2]) [%] | further results
2.4-Dimethyl-11-ethyl-6-pyrrolidino-11H-dipyrido[3,2-b:2',3'-e][1,4]diazepine [Example 10] | – | – | RT Assay % inhibition @ 10 µg/ml (HIV-1 RT; 10 µg/ml, reaction mixture for compounds 1 to 15 (Tris pH 7.8, KCl, human serum albumin, 6µM 3H-dGTP in 2X mix)): 91%
Cc1ccnc2c1N=C(Cl)c1cccnc1N2C1CC1 [Example 1, 6-Chloro-11-cyclopropyl-4-methyl-11H-dipyrido[3,2-b:2',3'-e][1,4]diazepine] | > 90 | – | CC50 at 120 h (in vitro): > 5 µg/mL
Cc1ccnc2c1N=C(C#N)c1cccnc1N2C1CC1 [Example 2, 6-Cyano-11-cyclopropyl-4-methyl-11H-dipyrido[3,2-b:2',3'-e][1,4]diazepine] | > 50 | – | CC50 at 120 h (in vitro): 28 µg/mL (≈ 102 µM)
CCN1c2ncccc2C(C#N)=Nc2c(C)cc(C)nc21 [Example 3, 6-Cyano-2,4-dimethyl-11-ethyl-11H-dipyrido[3,2-b:2',3'-e][1,4]diazepine] | > 50 | – | –
CCOC(=O)CSC1=Nc2c(C)ccnc2N(C2CC2)c2ncccc21 [Example 5] | – | 98 | –
Cc1ccnc2c1N=C(n1ccnc1)c1cccnc1N2C1CC1 [Example 9] | – | 97 | –
Cc1ccnc2c1N=C(S(C)(=O)=O)c1cccnc1N2C1CC1 [Example 14, 11-Cyclopropyl-4-methyl-6-methylsulfonyl-dipyrido[3,2-b:2',3'-e][1,4]diazepine] | – | 100 | –
CCOC1=Nc2c(C)cccc2Nc2ncccc21 [Example 16, 5-Ethoxy-7-methyl-11H-pyridol[2,3-b][1,5]benzodiazepine] | – | – | inhibition at 10 µg/mL (HIV-1 RT; [3]): 59%
COC1=Nc2ccccc2N(C)c2ncccc21 [Example 17, 5-Methoxy-11-methyl-11H-pyrido[2,3-b][1,5]benzodiazepine] | – | – | inhibition at 10 µg/mL (HIV-1 RT; [3]): 82%
